Source: patent publication US20100233456A1, “LIGHT-STABILIZED POLYPROPYLENE” (SUMITOMO CHEMICAL COMPANY, LIMITED, priority 2007, published 2010)

How the values were obtained:
[1] = Rate of weight loss by TG/DTA; assay type: physicochemical; conditions: heated in nitrogen gas from 25° C. to 300° C. at 10° C./minute
Procedure: Regarding the requirement (c), the rate of decrease in weight by heating under the above conditions is preferably less than 5%, and further preferably less than 3%, from a viewpoint of an emission amount of VOC and light stability. A rate of decrease in weight of the hindered amine light stabilizer (B) is measured using a thermo gravimetry differential thermal analyzer (hereinafter, referred to as TG/DTA). Specifically, the hindered amine light stabilizer (B) is heated from 25° C. to 300° C. at a rate of 10° C./minute in a nitrogen gas atmosphere, which gas is flowed at a constant rate of 100 mL/minute, thereby measuring the rate (percentage) of a weight loss to the original weight with a thermobalance.

[2] = Acid dissociation constant (pKa) by titration method
Procedure: The pKa value is an index showing an inherent nature of the compound having a 2,2,6,6-tetramethylpiperidyl group represented by the general formula (I), and is measured by a titration method known in the art, which is a measurement method of an acid dissociation constant based on a Brøsted's definition.

Row | Molecule | Rate of weight loss by TG-DTA [1] [%] | pKa [2]
1 | CN1C(C)(C)CC(OC(=O)CC(C(=O)OC2CC(C)(C)N(C)C(C)(C)C2)C(CC(=O)OC2CC(C)(C)N(C)C(C)(C)C2)C(=O)OC2CC(C)(C)N(C)C(C)(C)C2)CC1(C)C (stereo not shown) [Example B-2, tetrakis(1,2,2,6,6-pentamethyl-4-piperidyl) 1,2,3,4-buteane tetracarboxylate] | 5.8 | 8.9
2 | N,N-bis(3-aminopropyl)ethylenediamine. 2,4-bis[N-butyl-N-(1,2,2,6,6-pentamethyl-4-piperidyl)amino]-6-chloro-1,3,5-triazine condensate [Example B-5] | 0.6 | 9.2

Further lines, with some results ahead:

Row | Rate of weight loss by TG-DTA [1] [%] | Molecule | pKa [2]
3 | 68.6 | CCCCCCCCON1C(C)(C)CC(OC(=O)CCCCCCCCC(=O)OC2CC(C)(C)N(OCCCCCCCC)C(C)(C)C2)CC1(C)C [Example B-4, bis(1-octyloxy-2,2,6,6-tetramethylpiperidin-4-yl) sebacate] | 
4 | 31.6 | CC(C)(C)c1ccc(OC(=O)c2cc(C(C)(C)C)c(O)c(C(C)(C)C)c2)c(C(C)(C)C)c1 [Example B-6, 2,4-di-t-butylphenyl-3,5-di-t-butyl-4-hydroxybenzoate] | 
5 | 19.6 | CC1(C)CC(OC(=O)CCCCCCCCC(=O)OC2CC(C)(C)NC(C)(C)C2)CC(C)(C)N1 [Example B-3, bis(2,2,6,6-tetramethyl-4-piperidyl) sebacate] | 
